US6444470B1, “Transformation-enhancing compositions and methods of use” (Pioneer Hi-Bred International, Inc., priority 1999, dated 2002)
Read-outs that look alike come from different tables or passages of the source.

How the values were obtained:
maize elite inbred N46 = test: Pre-harvest ear injection, then Agrobacterium-mediated transformation, inbred N46; assay type: in vivo; details: for percent of transformed colonies relative to the no-infusion control (in words): pre-harvest ear injection
Method: (§1) Ears from greenhouse-grown or field-grown maize elite inbreds, P38 and N46, were treated with one of the following agents or combinations of agents at three days after pollination: dicamba, hormone cocktail, 2,4-D (2,4-dichlorophenoxyacetic acid), callus medium, water, ABA, Pluronic F68, proline mix, ACC, AVG, salts cocktail 4, salts cocktail 2 (Gamborg et al. (1968) Exp. Cell Res. 50:151), salts cocktail 1 (Murashige and Skoog (1962) Physiol. Plant. 15:473), salts cocktail 3 (Chu et al. (1975) Scientia Sinic. 18:659), 2,4D+salts cocktail 1, 2,4-D+salts cocktail 3, 2,4-D+dicamba and dicamba+ACC. The solutions were filter sterilized before applying to the ears at a rate of 10 mL/ear. The solutions were applied to the ears by injecting between the silks and husks at three days post pollination. Care was taken not to disrupt the ears.
(§2) Agrobacterium-mediated transformation of maize was also employed. See, U.S. application Ser. No. 08/788,018, herein incorporated by reference.
(§3) The ear injection was conducted as described in Example I. Other synthetic auxins were tested for their effects on the transformation of N46 and P38 maize.
(§4) An endogenous plant growth regulator, abscisic acid (ABA), and other compounds known to influence plant growth were tested for their effects on maize transformation when applied to ears at four days after pollination using the injection method described in Example I. Additionally, the effect of the injection of water was also tested. […] ACC is a product of the reaction catalyzed by ACC synthase and a substrate of the reaction catalyzed by ACC oxidase, the ethylene-forming enzyme. AVG, on the other hand, is an inhibitor of ACC synthase.
Several nitrogen-containing treatments were applied to ears at three days after pollination. The treatments employed are salt formulations that are commonly used in plant tissue culture media including salts cocktail 4, salts cocktail 2, salts cocktail 1 and salts cocktail 3. […]

maize elite inbred P38 [1] = test: Pre-harvest ear injection, then Agrobacterium-mediated transformation, inbred P38; assay type: in vivo
Method: as §1, §2, §3, §4
Several nitrogen-containing treatments were applied to ears at three days after pollination. The treatments employed are salt formulations that are commonly used in plant tissue culture media including salts cocktail 4, salts cocktail 2, salts cocktail 1 and salts cocktail 3.
Finally, some combination treatments were examined for their effects on the transformation of N46 and P38 maize (Table 7).

maize ears = test: Lanolin-paste application to ears, then particle bombardment transformation; assay type: in vivo; details: for 21 Day Callus Response / 42 Day Callus Response / Regenerable Colonies / Plants Transformed: 0.5% in lanolin paste on half an ear, three days after pollination; for Plants Transformed: particle bombardment; for recovery of regenerable colonies and transformed plants (in words): lanolin paste, versus lanolin controls and non-treated control
Source text: Transformation-enhancing compounds were also introduced via lanolin. kLanolin paste was typically applied at a mass of 1 gram per ear. Husks were peeled back, but not removed, silks were removed, and the lanolin mixed with the compound was applied to the pericarp of the developing seed using a spatula. Ears were divided into halves longitudinally: one half would received lanolin with the compound and the other half received only lanolin.
Al media recipes are in the Table 10-18.
The effects of pre-harvest ear treatments of zeatin riboside and 2,4-D on maize transformation were investigated. Both agents were applied to separate ears at three days after pollination in a lanolin paste. The method employed for applying the transformation-enhancing agents of the invention to ears in lanolin paste is described in Example I. Ears were divided into halves longitudinally with one half of the ear receiving lanolin with zeatin riboside or 2,4-D and the other half receiving only lanolin. An additional ear that was not treated was used as a control.

maize elite inbred P38 [2] = system: maize elite inbred P38
Method: as §1
(§5) For transformation by particle bombardment, maize ears were harvested at ten days after pollination and surface sterilized in 50% CHLOROX™ laundry bleach plus 0.5% Tween 20 surfactant for 20 minutes, and rinsed two times with sterile water. The immature embryos were excised and placed embryo axis side down (scutellum side up), 25 embryos per plate, on 604 medium, incubated at 28° C. in the dark for three days. Prior to bombardment, all embryos were transferred to plates containing 604 medium and 15% sucrose and then aligned within the 2.5-cm target zone in preparation for bombardment. Al media recipes are in the Table 10-18.
A plasmid vector comprising the coding region of uidA operably linked to a ubiquitin promoter was made. This plasmid DNA plus plasmid DNA containing a BAR selectable marker gene operably linked to the double 35S promoter was precipitated onto 1.1 μm (average diameter) tungsten pellets using a CaCl2 precipitation procedure as follows:
The final mixture was sonicated briefly and allowed to incubate under constant vortexing for 10 minutes. After the precipitation period, the tubes were centrifuged briefly, liquid removed, washed with […] 100% ethanol, and centrifuged for 30 seconds. Again the liquid was removed, and 60 μL 100% ethanol was added to the final tungsten particle pellet. For particle gun bombardment, the tungsten/DNA particles were briefly sonicated and 10 μL spotted onto the center of each macrocarrier and allowed to dry about two minutes before bombardment.
(§6) The sample plates were bombarded at level #4 in a Biorad PDS-1000 Helium gun. All samples received a single shot at 650 PSI, with a total of six aliquots taken from each tube of prepared particles/DNA. Following bombardment the embryos were maintained on 604 medium +15% sucrose for three days in the dark, and then transferred to 604S medium with 3 mg/L bialaphos, maintained for three weeks on 3 mg/L bialaphos, and then transferred to 604J at 5 mg/L bialaphos. Once herbicide-resistant colonies were well established and ready for regeneration, approximately eight weeks after bombardment, the herbicide-resistant colonies were transferred to 288O regeneration medium containing 3 mg/L bialaphos, maintained in the dark or seven days, and then transferred to the light at 28° C. for shoot formation and elongation. Callus response, colony and plant recovery and GUS gene expression were monitored during the course of the experiments.
The effects of injecting into ears three days after pollination 10 mL of a 100 μM of dicamba, an auxin analogue, on maize transformation was investigated.

maize immature embryos = details: for 21 Day Callus Response / 42 Day Callus Response / Colonies to Plants / Colonies to Regeneration / Colonies with GUS Expression: 100 μM ear pre-treatment
Method: as §5, §6
Prior to bombardment, freshly excised embryos were placed onto either 560P, 601H, or 604 medium and incubated at 28° C. in the dark for three days. Prior to bombardment, all embryos were transferred to 604 with 15% sucrose. […] Colonies were transferred to regeneration medium containing 3 mg/L Bialaphos after 8-9 weeks in culture.

[3] = Table 5, ear injection three days after pollination, 10 mL/ear
[4] = 100 μM ear injection three days after pollination, of 385 embryos
[5] = 10 mL of 100 μM injected into ears three days after pollination, of 385 embryos
[6] = initial culture medium 560P, 79 embryos
[7] = initial culture medium 601H, 84 embryos
[8] = initial culture medium 604, 128 embryos
[9] = Table 6, ear injection four days after pollination

## O=C(O)COc1ccc(Cl)cc1Cl [2,4-D, 2,4-dichlorophenoxyacetic acid]
Maize elite inbred N46; [3]
  Number of GUS Positive Colonies: 4
  Percent Colony Transformation: 2.70%
Maize elite inbred P38 [1]; [3]
  Number of GUS Positive Colonies: 2
  Percent Colony Transformation: 4.20%
Maize elite inbred P38 [1]; pre-harvest ear injection
  percent of transformed colonies relative to the no-infusion control (in words): significantly greater percentages of transformed colonies than the control
Maize ears
  21 Day Callus Response: 15.4%
  42 Day Callus Response: 12.5%
  Regenerable Colonies: 1.5%
  Plants Transformed: 1.5%
  recovery of regenerable colonies and transformed plants (in words): Regenerable colonies and transformed maize plants were recovered

## COc1c(Cl)ccc(Cl)c1C(=O)O [dicamba]
Maize elite inbred P38 [2]; [4]
  Colonies Expressing GUS: 8.6%
  Colonies to Plants: 4.2%
  Colonies to Regeneration: 29.1%
Maize elite inbred P38 [2]; 100 μM ear injection three days after pollination, particle bombardment, of 385 embryos
  Plants Transformed: 3.11%
Maize elite inbred P38 [2]; 100 μM pre-treatment, of the plants recovered
  colonies that produced escapes: two
Maize elite inbred P38 [2]; [5]
  21 Day Callus Response: 37.9%
  42 Day Callus Response: 40%
  56 Day Callus Response: 32.2%
Maize elite inbred P38 [2]; ears pre-treated with 100 μM
  Type I embryogenic callus response rate versus non pre-treated control (in words): higher early in the experiment, and was maintained over the course of the study
Maize immature embryos; [6]
  21 Day Callus Response: 12.7%(10)
  42 Day Callus Response: 24%(19)
  Colonies to Plants: 1.3%(1)
  Colonies to Regeneration: 2.5%(2)
  Colonies with GUS Expression: 2.5%(2)
Maize immature embryos; [7]
  21 Day Callus Response: 17.9%(16)
  42 Day Callus Response: 16.5%(14)
  Colonies to Plants: 0%
  Colonies to Regeneration: 4.8%(4)
  Colonies with GUS Expression: 2.4%(2)
Maize immature embryos; [8]
  21 Day Callus Response: 23.4%(30)
  42 Day Callus Response: 33%(42)
  Colonies to Plants: 0%
  Colonies to Regeneration: 11.7%(15)
  Colonies with GUS Expression: 4.7%(6)
Maize immature embryos; 100 μM pre-treatment / 560P medium
  colonies capable of regeneration: one
Maize elite inbred N46; [3]
  Number of GUS Positive Colonies: 89
  Percent Colony Transformation: 9.50%
Maize elite inbred N46
  percent of transformed colonies relative to the no-infusion control (in words): superior transformation results
Maize elite inbred P38 [1]; [3]
  Number of GUS Positive Colonies: 11
  Percent Colony Transformation: 1.10%

## C/C(=C\CNc1ncnc2c1ncn2[C@@H]1O[C@H](CO)[C@@H](O)[C@H]1O)CO [Zeatin riboside, zeatin riboside]
Maize ears
  21 Day Callus Response: 9.4%
  42 Day Callus Response: 9.4%
  Regenerable Colonies: 0.6%
  Plants Transformed: 0.6%
  recovery of regenerable colonies and transformed plants (in words): Regenerable colonies and transformed maize plants were recovered

## CC1=CC(=O)CC(C)(C)[C@@]1(O)/C=C/C(C)=C\C(=O)O [ABA, abscisic acid]
Maize elite inbred N46; [9]
  Number of GUS Positive Colonies: 25
  Percent Colony Transformation: 20%
Maize elite inbred N46
  percent of transformed colonies relative to the no-infusion control (in words): largest increase in percent colony transformation above the control
Maize elite inbred P38 [1]; [9]
  Number of GUS Positive Colonies: 0
  Percent Colony Transformation: 0%

## NC1(C(=O)O)CC1 [ACC, aminocyclopropane-1-carboxylic acid]
Maize elite inbred N46; [9]
  Number of GUS Positive Colonies: 12
  Percent Colony Transformation: 6.80%
Maize elite inbred P38 [1]; [9]
  Number of GUS Positive Colonies: 0
  Percent Colony Transformation: 0%
